Holding throughout (assay): Clark electrode O2 uptake, cytochrome c / ascorbate / TMPD
What all share (type): biochemical

In assay [1] the target is T1, Rhodobacter sphaeroides cytochrome c oxidase (RsCcO) (Cereibacter sphaeroides, UniProt P33517+Q03736, Q03736:E101A).
In assay [2] the target is T1, Rhodobacter sphaeroides cytochrome c oxidase (RsCcO). The source holds these as a separate data set.
Assay [3] addresses Rhodobacter sphaeroides cytochrome c oxidase (RsCcO) (Cereibacter sphaeroides, UniProt P33517+Q03736). Conditions: read-out: K1/2; inhibition; 0.01% DDM, pH 7.4, 30 μM bovine cytochrome c.

Our source for the EC50 and IC50 values is paper PMC3622084 (Biochemistry, 2013).

As usually defined, the EC50 is the concentration needed to bring the measured effect to its halfway point. The low end stands for higher potency in that assay, the high end for lower potency in that assay.

T1 sequence (P33517 whole entry): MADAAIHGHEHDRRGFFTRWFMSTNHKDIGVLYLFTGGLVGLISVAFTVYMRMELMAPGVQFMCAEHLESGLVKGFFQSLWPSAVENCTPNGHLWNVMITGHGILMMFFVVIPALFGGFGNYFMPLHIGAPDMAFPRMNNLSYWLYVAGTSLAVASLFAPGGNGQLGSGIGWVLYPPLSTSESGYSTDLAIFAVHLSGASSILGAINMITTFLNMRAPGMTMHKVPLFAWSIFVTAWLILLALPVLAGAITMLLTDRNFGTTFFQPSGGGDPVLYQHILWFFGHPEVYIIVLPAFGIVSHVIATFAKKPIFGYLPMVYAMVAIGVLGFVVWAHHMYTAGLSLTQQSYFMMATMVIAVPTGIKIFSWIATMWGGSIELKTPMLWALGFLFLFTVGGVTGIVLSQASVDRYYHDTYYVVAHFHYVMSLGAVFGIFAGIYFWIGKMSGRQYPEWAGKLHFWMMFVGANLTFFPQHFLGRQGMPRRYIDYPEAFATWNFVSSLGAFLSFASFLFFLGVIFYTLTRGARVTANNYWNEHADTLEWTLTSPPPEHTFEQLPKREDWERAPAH
T1 sequence (Q03736 26-303 E101A limits assumed): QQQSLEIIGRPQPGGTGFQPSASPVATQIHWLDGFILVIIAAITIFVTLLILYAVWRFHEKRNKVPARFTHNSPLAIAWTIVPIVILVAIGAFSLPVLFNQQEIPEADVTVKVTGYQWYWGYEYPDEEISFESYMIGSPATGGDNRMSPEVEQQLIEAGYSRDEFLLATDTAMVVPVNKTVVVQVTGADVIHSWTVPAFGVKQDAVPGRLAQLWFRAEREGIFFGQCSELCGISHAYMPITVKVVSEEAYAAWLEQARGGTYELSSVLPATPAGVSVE
Rhodobacter sphaeroides cytochrome c oxidase (RsCcO) (Cereibacter sphaeroides, UniProt P33517+Q03736), sequence (P33517 whole entry): as the sequence (P33517 whole entry) above
Rhodobacter sphaeroides cytochrome c oxidase (RsCcO) (Cereibacter sphaeroides, UniProt P33517+Q03736), sequence (Q03736 26-303 limits assumed): as the sequence (Q03736 26-303 E101A limits assumed) above, with A76E counted along it

The compound `C=CC1=C(C)/C(=C/c2[nH]c(Cc3[nH]c(/C=C4\NC(=O)C(C)=C4C=C)c(C)c3CCC(=O)O)c(CCC(=O)O)c2C)NC1=O` [bilirubin] displayed an EC50 in assay [1] of roughly 50 µM. As for `C[C@H](CCC(=O)O)[C@H]1CC[C@H]2[C@@H]3[C@H](O)C[C@@H]4C[C@H](O)CC[C@]4(C)[C@H]3C[C@H](O)[C@]12C` [cholate], the 50% effective concentration (EC50) in assay [1] came to 200 µM. Same read-out and setting: the result for `CC(C)CCC[C@@H](C)[C@H]1CC[C@H]2[C@@H]3CC=C4C[C@@H](OC(=O)CCC(=O)O)CC[C@]4(C)[C@H]3CC[C@]12C` [cholesteryl hemisuccinate] reads roughly 80 µM. As to `CCCCCCCC/C=C\CCCCCCCC(=O)OC[C@@H](O)COP(=O)([O-])OCC[N+](C)(C)C` [lyso-oleoyl phosphatidylcholine], the IC50 in assay [2] was roughly 17 µM. `CC(C)CCCC(C)CCCC(C)CCCC(C)CC(=O)O` (centres unmarked) [phytanic acid] registered a concentration giving a half-maximal response (EC50) in assay [1] of roughly 4 µM. On the same count and under the same terms, the value for `C=CC1=C(C)c2cc3[nH]c(cc4nc(cc5[nH]c(cc1n2)c(C)c5CCC(=O)O)C(CCC(=O)O)=C4C)c(C)c3C=C` [protoporphyrin IX] was roughly 14 µM.

As to `CC1=C(/C=C/C(C)=C/C=C/C(C)=C/C(=O)O)C(C)(C)CCC1` [retinoic acid], the EC50 in assay [1] is roughly 8 µM. Consider CHOBIMALT, for which the IC50 in assay [3] was roughly 200 µM.
